# Experimental data published in PMC11181328 (Journal of Medicinal Chemistry, 2024).
# Structures can show the parent of a compound that is named as a salt. Where two headings read alike, the source gives them in different places.
# Columns and labels:
# [1] = target: T1, KOR (Mus musculus, UniProt P33534); assay: Competitive radioligand binding assay, KOR; settings: for selectivity ratio δ/κ / selectivity ratio μ/κ: ratio of Ki values; for radioligand binding affinity (Ki, nM) KOR: [3H]diprenorphine, mKOR-CHO membranes
# T1 construct: expressed in transfected cells; membrane homogenate
# [2] = target: T2, DOR (Homo sapiens, UniProt P41143); assay: Competitive radioligand binding assay, DOR; settings: for radioligand binding affinity (Ki, nM) DOR: [3H]diprenorphine, hDOR-CHO membranes
# T2 construct: expressed in transfected cells; membrane homogenate
# [3] = target: T1, KOR; assay: [35S]-GTPγS functional assay, KOR; assay type: biochemical; settings: for EC50: mKOR-CHO membranes; for Emax: percent of U50,488 full agonist control
# [4] = target: T2, DOR; assay: [35S]-GTPγS functional assay, DOR; assay type: biochemical; settings: for EC50: hDOR-CHO membranes; for Emax: percent of SNC80 full agonist control
# [5] = system: male Swiss Webster mice; assay: Warm-water tail immersion assay, agonism (single dose screen and potency); assay type: in vivo, mouse; settings: for antinociception compared to the vehicle group / percent MPE: single dose 10 mg/kg s.c.; for antinociception compared to the vehicle group: 20 min; for ED50: Mus musculus, sc, read-out: potency ED50 [95% CI] mg/kg, s.c., 20 min prior to tail withdrawal latency measurement, male Swiss Webster mice; for percent MPE: withdrawal latency 20 min after administration
# [6] = target: T3, MOR (Mus musculus, UniProt P42866); assay: Competitive radioligand binding assay, MOR; design: expressed in transfected cells; membrane homogenate
# [7] = target: T3, MOR; assay: [35S]-GTPγS functional assay, MOR; assay type: biochemical; design: expressed in transfected cells; membrane homogenate; settings: for Emax: read-out: [35S]-GTPγS functional activity MOR Emax (%)
# [8] = [3H]naloxone, mMOR-CHO membranes
SMILES,Ki [1] [nM],selectivity ratio δ/κ [1],selectivity ratio μ/κ [1],Ki [2] [nM],EC50 [3] [nM],Emax [3] [%],EC50 [4] [nM],Emax [4] [%],antinociception compared to the vehicle group [5],Ki [6] [nM],EC50 ([7]; mMOR-CHO membranes) [nM],Emax [7] [%],"radioligand binding affinity (Ki, nM) KOR [1]",ED50 [5] [mg/kg],percent MPE [5] [%],"radioligand binding affinity (Ki, nM) MOR [6, 8]","radioligand binding affinity (Ki, nM) DOR [2]","Ki ([6]; [3H]naloxone, mMOR-CHO membranes, read-out: radioligand binding affinity (Ki, nM) MOR) [nM]",EC50 ([7]; supplement csv) [nM]
"CN(C(=O)CCc1ccoc1)[C@@H]1CC[C@@]2(O)[C@H]3Cc4cccc5c4[C@@]2(CCN3CC2CC2)[C@H]1O5 [Compound 3, 17-Cyclopropylmethyl-4,5α-epoxy-6β-[3′-(furan-3″-yl)-N-methylpropanamido]-14β-hydroxymorphinan Hydrochloride]",34.5 ± 6.27,26,1,891 ± 52.5,246 ± 29.2,86.42 ± 0.63,5780 ± 829,66.9 ± 3.52,lack of significant antinociceptive effect,43.8 ± 2.85,224 ± 44.9,13.8 ± 1.86,–,–,–,–,–,–,–
"CN(C(=O)CCc1ccco1)[C@H]1CC[C@@]2(O)[C@H]3Cc4cccc5c4[C@@]2(CCN3CC2CC2)[C@H]1O5 [Compound 9, 17-Cyclopropylmethyl-4,5α-epoxy-6α-[3′-(furan-2″-yl)N-methylpropanamido]-14β-hydroxymorphinan Hydrochloride]",1 ± 0.18,47,14,46.8 ± 8.37,18.4 ± 1.05,91.4 ± 1.46,212 ± 33.8,70.5 ± 5.9,lack of significant antinociceptive effect,14.1 ± 1.4,76.5 ± 48.5,11.2 ± 1.55,–,–,–,–,–,–,–
"O=C(CCc1ccco1)N[C@@H]1CC[C@@]2(O)[C@H]3Cc4cccc5c4[C@@]2(CCN3CC2CC2)[C@H]1O5 [Compound 12, 17-Cyclopropylmethyl-4,5α-epoxy-6β-[3′-(furan-2″-yl)propanamido]-14β-hydroxymorphinan Hydrochloride]",23.6 ± 3.79,34,1,800 ± 96.7,368 ± 31.8,86.83 ± 0.69,2400 ± 200,71 ± 6.1,lack of significant antinociceptive effect,27.5 ± 2.9,104 ± 24.2,10.8 ± 1.13,–,–,–,–,–,–,–
"CN(C(=O)CCc1ccoc1)[C@@H]1CC[C@@]2(O)[C@H]3Cc4ccc(O)c5c4[C@@]2(CCN3CC2CC2)[C@H]1O5 [Compound 7, 17-Cyclopropylmethyl-3,14β-dihydroxy-4,5α-epoxy-6β-[3′-(furan-3″-yl)-N-methylpropanamido]morphinan Hydrochloride]",0.28 ± 0.05,–,–,8.42 ± 0.9,0.99 ± 0.04,102 ± 1.05,19.2 ± 1.62,51.4 ± 2.78,–,0.53 ± 0.06,4.3 ± 0.47,12.2 ± 0.92,subnanomolar,0.443,≥ 80,subnanomolar,–,–,–
"CN(C(=O)/C=C/c1ccco1)[C@H]1CC[C@@]2(O)[C@H]3Cc4cccc5c4[C@@]2(CCN3CC2CC2)[C@H]1O5 [Compound 17, 17-Cyclopropylmethyl-4,5α-epoxy-6α-[(2E)-3′-(furan-2″-yl)N-methylprop-2-enamido]-14β-hydroxymorphinan Hydrochloride]",0.62 ± 0.04,110,27,68.4 ± 11.2,5.97 ± 0.42,110 ± 7.9,440 ± 32.2,–,–,16.8 ± 1.34,125 ± 17.1,22.9 ± 2.01,subnanomolar,7.8,≥ 80,–,–,–,–
"CN(C(=O)CCc1ccco1)[C@@H]1CC[C@@]2(O)[C@H]3Cc4ccc(O)c5c4[C@@]2(CCN3CC2CC2)[C@H]1O5 [Compound 15, 17-Cyclopropylmethyl-3,14β-dihydroxy-4,5α-epoxy-6β-[3′-(furan-2″-yl)-N-methylpropanamido]morphinan Hydrochloride]",0.32 ± 0.03,–,–,7.32 ± 1.08,1.48 ± 0.17,100.7 ± 1,16.9 ± 2.57,38.6 ± 1.37,–,0.66 ± 0.05,3.58 ± 0.59,15.3 ± 0.5,subnanomolar,0.251,≥ 80,subnanomolar,–,–,–
"O=C(CCc1ccoc1)N[C@H]1CC[C@@]2(O)[C@H]3Cc4cccc5c4[C@@]2(CCN3CC2CC2)[C@H]1O5 [Compound 2, 17-Cyclopropylmethyl-4,5α-epoxy-6α-[3′-(furan-3″-yl)propanamido]-14β-hydroxymorphinan Hydrochloride]",161 ± 11.8,1,–,154 ± 26.5,1010 ± 176,66.1 ± 5.2,429 ± 62.6,> 80,lack of significant antinociceptive effect,54.5 ± 2.01,200 ± 63.1,8.8 ± 0.55,–,–,–,–,–,–,–
"O=C(/C=C/c1ccco1)N[C@H]1CC[C@@]2(O)[C@H]3Cc4cccc5c4[C@@]2(CCN3CC2CC2)[C@H]1O5 [Compound 18, 17-Cyclopropylmethyl-4,5α-epoxy-6α-[(2E)-3′-(furan-2″-yl)prop-2-enamido]-14β-hydroxymorphinan Hydrochloride]",249 ± 32,2,–,456 ± 26.4,1370 ± 89,85.2 ± 6.52,1240 ± 147,75 ± 5.1,lack of significant antinociceptive effect,107 ± 8.37,1510 ± 948,16 ± 2.91,–,–,–,–,–,–,–
"CN(C(=O)CCc1ccoc1)[C@H]1CC[C@@]2(O)[C@H]3Cc4cccc5c4[C@@]2(CCN3CC2CC2)[C@H]1O5 [Compound 1, 17-Cyclopropylmethyl-4,5α-epoxy-6α-[3′-(furan-3″-yl)N-methylpropanamido]-14β-hydroxymorphinan Hydrochloride]",0.48 ± 0.07,–,–,48.6 ± 6.51,–,–,137 ± 26.5,56.4 ± 2.6,–,7.74 ± 0.69,20 ± 3.49,11.5 ± 0.81,subnanomolar,0.553,≥ 80,–,–,–,–
"CN(C(=O)CCc1ccoc1)[C@H]1CC[C@@]2(O)[C@H]3Cc4ccc(O)c5c4[C@@]2(CCN3CC2CC2)[C@H]1O5 [Compound 5, 17-Cyclopropylmethyl-3,14β-dihydroxy-4,5α-epoxy-6α-[3′-(furan-3″-yl)-N-methylpropanamido]morphinan Hydrochloride]",0.13 ± 0.02,–,–,0.59 ± 0.06,–,–,0.75 ± 0.09,68.3 ± 1,–,0.18 ± 0.02,0.37 ± 0.05,17.9 ± 1.81,subnanomolar,–,–,subnanomolar,subnanomolar,–,–
"CN(C(=O)CCc1ccco1)[C@H]1CC[C@@]2(O)[C@H]3Cc4ccc(O)c5c4[C@@]2(CCN3CC2CC2)[C@H]1O5 [Compound 13, 17-Cyclopropylmethyl-3,14β-dihydroxy-4,5α-epoxy-6α-[3′-(furan-2″-yl)-N-methylpropanamido]morphinan Hydrochloride]",0.12 ± 0.02,–,–,0.37 ± 0.07,0.04 ± 0.01,101 ± 2.5,0.66 ± 0.06,63.1 ± 2.6,–,0.15 ± 0.01,0.31 ± 0.04,15.3 ± 1.08,subnanomolar,0.123,≥ 80,subnanomolar,subnanomolar,–,–
"Cl.O=C(CCc1ccco1)N[C@H]1CC[C@@]2(O)[C@H]3Cc4ccc(O)c5c4[C@@]2(CCN3CC2CC2)[C@H]1O5 [Compound 14, 17-Cyclopropylmethyl-3,14β-dihydroxy-4,5α-epoxy-6α-[3′-(furan-2″-yl)propanamido]morphinan Hydrochloride]",–,–,–,–,5.22 ± 0.79,–,3.55 ± 0.77,–,lack of significant antinociceptive effect,–,–,21.8 ± 2.76,–,–,–,subnanomolar,–,0.72 ± 0.1,2.77 ± 0.73
"O=C(CCc1ccoc1)N[C@@H]1CC[C@@]2(O)[C@H]3Cc4cccc5c4[C@@]2(CCN3CC2CC2)[C@H]1O5 [Compound 4, 17-Cyclopropylmethyl-4,5α-epoxy-6β-[3′-(furan-3″-yl)propanamido]-14β-hydroxymorphinan Hydrochloride]",8.37 ± 1.44,90,2,749 ± 59.1,117 ± 21.2,81.4 ± 7.72,1690 ± 116,55.8 ± 2.39,–,17.3 ± 1.68,185 ± 38,14.2 ± 1.27,–,–,–,–,–,–,–
"CN(C(=O)/C=C/c1ccco1)[C@@H]1CC[C@@]2(O)[C@H]3Cc4cccc5c4[C@@]2(CCN3CC2CC2)[C@H]1O5 [Compound 19, 17-Cyclopropylmethyl-4,5α-epoxy-6β-[(2E)-3′-(furan-2″-yl)-N-methylprop-2-enamido]-14β-hydroxymorphinan Hydrochloride]",4.11 ± 0.57,551,52,2260 ± 338,53.9 ± 3.33,96.9 ± 8.02,5980 ± 581,> 80,–,215 ± 26.5,888 ± 363,11 ± 0.68,–,–,–,–,–,–,–
